# According to paper PMC3582657 (Clinical pharmacology and therapeutics, 2008):
# “And” between values parts separate entries of the source, which are not always exact repeats. Equal values may be shown once. Read-outs that look alike come from different tables or passages of the source.
# Tests used:
# [1] = background statement, no reference given; cited from earlier work
# [2] = type: in vivo, human
# [3] = mean±SD; for CL renal: human, urine, CLr (renal clearance)
# [4] = multiple doses of rifampin; cited from earlier work
# blood glucose [5] = details: concomitant rifampin versus control; cited from earlier work
# blood glucose [6] = test: Blood glucose level after glyburide dosing; type: in vivo, human; details: rifampin IV (Treatment C) phase in comparison to other treatment groups; repeated ANOVA p<0.0001
# [7] = Safety assessment in the clinical study; type: in vivo, human
# P-glycoprotein (P-gp) = details: cited from earlier work
# [8] = Treatment A: 1.25 mg oral glyburide alone (control), mean±SD, n=9
# [9] = Treatment A: 1.25 mg oral glyburide alone (control), median and range
# [10] = Treatment A: 1.25 mg oral glyburide alone (control), plasma, mean±SD, n=9
# [11] = Treatment B (ciprofloxacin IV phase) vs Treatment A
# [12] = Treatment B: 200 mg iv ciprofloxacin just before 1.25 mg oral glyburide, median and range
# [13] = Treatment C (rifampin IV phase) vs Treatment A
# [14] = Treatment C: single 600 mg iv rifampin then 1.25 mg oral glyburide, mean±SD, n=9
# [15] = Treatment D (rifampin IV after oral induction) compared with Treatment E
# [16] = Treatment D (rifampin IV after oral induction) compared with control Treatment A
# [17] = Treatment D (rifampin IV/PO phase) vs Treatment A
# [18] = Treatment D: 600 mg oral rifampin daily for 6 days, next day 600 mg iv rifampin then 1.25 mg oral glyburide, median and range
# [19] = Treatment E (rifampin PO phase) vs Treatment A
# [20] = iv rifampin effect under induced conditions (Treatment D / Treatment E)
# [21] = iv rifampin effect under noninduced conditions (Treatment C / Treatment A)
# [22] = single IV infusion of rifampin (Treatment C) compared with control Treatment A
# [23] = single IV infusion of rifampin (Treatment C) vs control Treatment A
structure (smiles),measurement,setting,value
COc1ccc(Cl)cc1C(=O)NCCc1ccc(S(=O)(=O)NC(=O)N[C@@H]2CCC[C@H](O)C2)cc1 (relative stereo) [3-cis-hydroxyglyburide],hypoglycemic activity (potency) retained relative to the parent compound,[1],50%
"COc1ccc(Cl)cc1C(=O)NCCc1ccc(S(=O)(=O)NC(=O)NC2CCC(O)CC2)cc1 (stereo not drawn) [4-hydroxyglyburide, 4-trans-hydroxyglyburide]",hypoglycemic activity (potency) retained relative to the parent compound,[1],75%
same,AUCm/AUCp (AUC ratio of 4-hydroxyglyburide to glyburide),"[2]; Treatment A, glyburide control, mean±SD",3.67±1.03%
same,MRT,[2]; [8],1.6 ± 0.9 h
same,t1/2,[2]; [8],4.2 ± 1.7 h
same,Tmax,[2]; [9],4(3–6) h
same,AUC0-∞,[2]; [10],66.0 ± 23.2 ng·h/mL
same,Cmax,[2]; [10],9.67 ± 2.51 ng/mL
same,"AUC0-∞, mean % of control",[2]; [11],101 % of control
same,"Cmax, mean % of control",[2]; [11],99 % of control
same,"MRT, mean % of control",[2]; [11],89 % of control
same,"t1/2, mean % of control",[2]; [11],115 % of control
same,AUCm/AUCp (AUC ratio of 4-hydroxyglyburide to glyburide),"[2]; Treatment B, ciprofloxacin IV, mean±SD",3.34±0.37%
same,Tmax,[2]; [12],4(3–8) h
same,"AUC0-∞, mean % of control",[2]; [13],145 % of control
same,"Cmax, mean % of control",[2]; [13],134 % of control
same,"MRT, mean % of control",[2]; [13],121 % of control
same,"t1/2, mean % of control",[2]; [13],102 % of control
same,AUCm/AUCp (AUC ratio of 4-hydroxyglyburide to glyburide),"[2]; Treatment C, rifampin IV, mean±SD",2.36±0.61 %
same,MRT,[2]; [14],1.5 ± 0.8 h
same,t1/2,[2]; [14],3.8 ± 0.7 h
same,Tmax,"[2]; Treatment C: single 600 mg iv rifampin then 1.25 mg oral glyburide, median and range",4(3–6) h
same,increase in AUC,[2]; [15],67±44%
same,increase in Cmax,[2]; [15],49±44%
same,decrease in Cmax,[2]; [16],not significant
same,"AUC0-∞, mean % of control",[2]; [17],54 % of control
same,"Cmax, mean % of control",[2]; [17],81 % of control
same,"MRT, mean % of control",[2]; [17],77 % of control
same,decrease in mean residence time (MRT),[2]; Treatment D versus control Treatment A,23%
same,AUCm/AUCp (AUC ratio of 4-hydroxyglyburide to glyburide),"[2]; Treatment D, rifampin IV/PO, mean±SD",2.52±0.35 %
same,Tmax,[2]; [18],4(3–6) h
same,"AUC0-∞, mean % of control",[2]; [19],33 % of control
same,"Cmax, mean % of control",[2]; [19],56 % of control
same,"MRT, mean % of control",[2]; [19],41 % of control
same,AUCm/AUCp (AUC ratio of 4-hydroxyglyburide to glyburide),"[2]; Treatment E, rifampin PO, mean±SD",3.36±0.60%
same,"AUC0-∞, ratio D to E",[2]; [20],1.7±0.4
same,"Cmax, ratio D to E",[2]; [20],1.5±0.4
same,"MRT, ratio D to E",[2]; [20],1.3±1.3
same,"AUC0-∞, ratio C to A",[2]; [21],1.5±0.4
same,"Cmax, ratio C to A",[2]; [21],1.3±0.5
same,"MRT, ratio C to A",[2]; [21],1.2±0.9
same,increase in AUC0-∞,[2]; [22],45 ± 37%
same,increase in Cmax,[2]; [22],34 ± 47%
same,0–12h accumulated urine excretion,"[3]; Treatment A, glyburide control",358 ± 107 µg
same,CLr (renal clearance),"[3]; Treatment A, glyburide control",2200 ± 619 mL/day/kg
same,0–12h accumulated urine excretion,"[3]; Treatment B, ciprofloxacin IV",325 ± 77 µg
same,CLr (renal clearance),"[3]; Treatment B, ciprofloxacin IV",2220 ± 564 mL/day/kg
same,0–12h accumulated urine excretion,"[3]; Treatment C, rifampin IV",457 ± 72 µg
same,CLr (renal clearance),"[3]; Treatment C, rifampin IV",2120 ± 629 mL/day/kg
same,0–12h accumulated urine excretion,"[3]; Treatment D, rifampin IV/PO",208±56 ^** ug
same,CLr (renal clearance),"[3]; Treatment D, rifampin IV/PO",2100 ± 401 mL/day/kg
same,0–12h accumulated urine excretion,"[3]; Treatment E, rifampin PO",135 ± 40 µg
same,CLr (renal clearance),"[3]; Treatment E, rifampin PO",2200 ± 665 mL/day/kg
COc1ccc(Cl)cc1C(=O)NCCc1ccc(S(=O)(=O)NC(=O)NC2CCCCC2)cc1 [glyburide],decrease in AUC of glyburide by rifampin,[4],39%
same,decrease in maximal concentration (Cmax) of glyburide by rifampin,[4],22%
same,CL/F,[2]; [8],10.1±3.1 mI/h/kg
same,Vss/F,[2]; [8],49±33 mI/kg
same,Tmax,[2]; [9],3(2–4) h
same,"AUC0-∞, mean % of control",[2]; [11],107 % of control
same,"Cmax, mean % of control",[2]; [11],95 % of control
same,"MRT, mean % of control",[2]; [11],119 % of control
same,"t1/2, mean % of control",[2]; [11],108 % of control
same,Tmax,[2]; [12],3(2–6) h
same,"AUC0-∞, mean % of control",[2]; [13],225 % of control
same,"Cmax, mean % of control",[2]; [13],181 % of control
same,"MRT, mean % of control",[2]; [13],84 % of control
same,"t1/2, mean % of control",[2]; [13],84 % of control
same,CL/F,[2]; [14],4.59±1.20 mI/h/kg
same,Vss/F,[2]; [14],16±7 mI/kg
same,increase in AUC,[2]; [15],120±56%
same,increase in Cmax,[2]; [15],92±76%
same,decrease in AUC0-∞,[2]; [16],22±21% and 22%
same,decrease in Cmax,[2]; [16],9±0.3% and 8%
same,"AUC0-∞, mean % of control",[2]; [17],78 % of control
same,"Cmax, mean % of control",[2]; [17],91 % of control
same,"MRT, mean % of control",[2]; [17],61 % of control
same,Tmax,[2]; [18],3(2–4) h
same,"AUC0-∞, mean % of control",[2]; [19],37 % of control
same,"Cmax, mean % of control",[2]; [19],52 % of control
same,"MRT, mean % of control",[2]; [19],53 % of control
same,change in any pharmacokinetic parameter,[2]; ciprofloxacin co-administered with glyburide (Treatment B) vs Treatment A,No significant changes in any parameter
same,Tmax,"[2]; human, plasma, oral",3 h
same,Tmax,"[2]; human, plasma, po, 1.25 mg",3 h
same,AUC(0-inf),"[2]; human, plasma, po, 1.25 mg, AUC0-∞, Treatment A: 1.25 mg oral glyburide alone (control), plasma, mean±SD, n=9",1890 ± 682 ng·h/mL
same,Cmax,"[2]; human, plasma, po, 1.25 mg, Cmax, Treatment A: 1.25 mg oral glyburide alone (control), plasma, mean±SD, n=9",384 ± 135 ng/mL
same,MRT,"[2]; human, plasma, po, 1.25 mg, MRT, Treatment A: 1.25 mg oral glyburide alone (control), mean±SD, n=9",4.5 ± 2 h
same,half-life,"[2]; human, plasma, po, 1.25 mg, t1/2, Treatment A: 1.25 mg oral glyburide alone (control), mean±SD, n=9",4.7 ± 1.3 h
same,increase in AUC0-∞,[2]; [22],125± 51.5% and 125%
same,increase in Cmax,[2]; [22],81 ± 28% and 81%
same,change in apparent terminal half-life (t1/2),[2]; single IV infusion of rifampin (Treatment C) vs control,did not change
same,decrease in oral clearance (CL/F),[2]; [23],53 ± 13%
same,decrease in oral steady-state volume of distribution (Vss/F),[2]; [23],60 ± 29%
same,change in blood glucose decremental AUC(0–7) (net area below baseline),blood glucose [5],−44%
same,change in maximum decrease in the blood glucose concentration,blood glucose [5],−36%
same,decremental AUC0–12 of blood glucose,blood glucose [6],statistically significant decrease
same,serious adverse events,"[7]; during or after the study, all treatments",No serious adverse events
same,0–12h accumulated urine excretion,"[3]; Treatment A, glyburide control",1.8 ± 1.1 µg
same,0–12h accumulated urine excretion,"[3]; Treatment B, ciprofloxacin IV",1.7 ± 0.6 µg
same,0–12h accumulated urine excretion,"[3]; Treatment C, rifampin IV",3.9 ± 1.3 µg
same,0–12h accumulated urine excretion,"[3]; Treatment D, rifampin IV/PO",1.4 ± 0.5 µg
same,0–12h accumulated urine excretion,"[3]; Treatment E, rifampin PO",1.3 ± 0.7 µg
same,CL renal,"[3]; iv, Treatment B, ciprofloxacin IV",0.36 mL/day/kg
same,CL renal,"[3]; iv, Treatment C, rifampin IV",0.384 mL/day/kg
same,CL renal,"[3]; oral, 1.25 mg, Treatment A, glyburide control",0.408 mL/day/kg
same,CL renal,"[3]; oral, Treatment D, rifampin IV/PO",0.384 mL/day/kg
same,CL renal,"[3]; po, 1.25 mg, Treatment E, rifampin PO",0.744 mL/day/kg
CO[C@H]1/C=C/O[C@@]2(C)Oc3c(C)c(O)c4c(O)c(c(/C=N/N5CCN(C)CC5)c(O)c4c3C2=O)NC(=O)/C(C)=C\C=C\[C@H](C)[C@H](O)[C@@H](C)[C@@H](O)[C@@H](C)[C@H](OC(C)=O)[C@@H]1C [rifampin],inhibition of Pgp,P-glycoprotein (P-gp),does not inhibit Pgp
same,adverse event leading to withdrawal,"[7]; one subject, after visit 3",allergy to rifampin
